Results taken from US20130338092A1, “COMPOUNDS AND METHODS FOR TARGETING LEUKEMIC STEM CELLS” (The Broad Institute, Inc., priority 2011, published 2013).
Where two headings read alike, the source gives them in different places.

What was measured:
[1] = system: LSC-enriched leukemia cells (MLL-AF9); assay: Leukemia coculture assay on primary MSC stroma (cobblestoning readout); format: cell-based, murine; conditions: for IC50: read-out: Leukemia IC50; for leukemia-selective activity in coculture vs normal HSPCs: primary MSC stroma
Method: Whole bone marrow were harvested from C57/B16 actin-dsRed mice (006051, Jackson Labs), subjected to red blood cell lysis (Qiagen), then granulocyte-macrophage progenitors (GMPs) were isolated by Fluorescence-activated cell sorting (FACsAria, Becton Dickinson). GMPs were spinfected twice (2500 rpm, 90 min, 37 C) in the presence of mIL3 (10 ng/ml, Peprotech), mIL6 (10 ng/ml, Peprotech), and mSCF (10 ng/ml, Peprotech) with pMSCV-MLL-AF9-Neo virus then transplanted into lethally irradiated C57/B16 recipients. After disease onset, the spleens were harvested and transplanted into sublethally irradiated secondary recipients. Subsequent transplantation of bulk spleen cells from leukemic secondary mice was repeated twice to generate leukemic GMPs from quaternary transplant leukemic mouse bone marrow.
Long bones and hips from moribund leukemic mice were harvested, cleaned, crushed and sequentially passed through 100 and 70 μM filters (Falcon). The cells were RBC lysed (Qiagen) and stained in PBS+2% FBS (Omega). Antibodies included lineage markers CD4, CD8, Gr1, Mac1, IL-7R, and Ter119 (Caltag), c-kit (17-1172-83, eBioscience), Sca-1 (11-5981-82, eBioscience), CD34 (11-0341-85, eBioscience), and CD16/32 (25-0161-82, eBioscience). Hoechst 33258 (H21491, Invitrogen) was also used, to identify live cells. Cells were sorted on a FacsAria II (Becton Dickinson).
The humerii, tibiae, ilia, femurs, and spine were isolated from actin-GFP mice (000329, Jackson Lab) crushed using a mortar and pestle, washed in phosphate-buffered saline (PBS) without magnesium and calcium (Gibco) with 0.5% fetal bovine serum (FBS) (HyClone) and filtered through a 70-μm filter. Red blood cell lysis was performed with ammonium-chloride/potassium-chloride (ACK) lysing buffer (Lonza), the cells were resuspended in α-MEM (StemCell Technologies), 20% FBS (HyClone) and 1× Pen-Strep (CellGro), plated in 25 ml in 150-cm^2 tissue-culture flasks (three per mouse), and incubated at 33° C. with 5% CO2. After 2-3 days, the medium was replaced with fresh α-MEM with 20% FBS. After 8-14 days, the cells were rinsed, split by trypsinization (CellGro), pooled, filtered through a 70 μm filter, replated at 3-4 million cells per 150-cm^2 tissue-culture flask, and grown at 33° C. with 5% CO2 for 3-4 days until nearly confluent. The cells were trypsinized, filtered, and resuspended in 0.5% FBS in PBS with biotin-conjugated anti-mouse CD105 antibody (eBioscience) for 15-30 minutes at room temperature. The CD105-labeled cells were incubated with Dynabead M-280 streptavidin-linked magnetic beads (Invitrogen) for 15-30 minutes at 4° C. with agitation and isolated using magnetic separation and rinsed once. The CD105^+ cell fraction was replated at 1-2 million cells per 150-cm^2 tissue-culture flask and incubated at 33° C. with 5% CO2 for 2-3 days.
The MSCs were trypsinized, filtered, diluted in phenol-red-free alpha-MEM with 20% FBS, and plated (30 μl for a total of 2000 cells per well) on 384-well clear-bottomed black tissue-culture treated plate (3712, Corning) pretreated with fibronectin (Millipore). Plate covers (VWR) were added, the plates were spun and at 500 with slow braking, and the cells were incubated at room temperature for 60-90 minutes before incubation at 33° C. with 5% CO2 for 3 days prior to hematopoietic cell plating. […]

normal HSPCs = assay: Normal HSPC coculture on primary MSC stroma; conditions: for IC50: Mus musculus
Method: The material was cleaned, crushed and sequentially passed through 100 and 70 μM filters (Falcon). […] The biotin-labeled cells were spun down, resuspended in 0.5% FBS in PBS, and incubated for 15-30 minutes at 4° C. with agitation with 1 mL of Dynabead M-280 streptavidin-linked magnetic beads per 4 mice. The bead-linked cells were depleted using magnetic separation and rinsed once. The lineage- and CD48-depleted cell fraction was labeled with streptavidin-APC-Cy7 antibody from BD Biosciences and c-kit-APC, Sca-1-FITC, CD48-Pacific Blue, and CD150 PE-Cy7 antibodies from eBioscience. DsRed-positive lineage-Sca-1+c-kit+CD48− HSCs were sorted using a FACS DiVa or FACS ARIA (BD Biosciences).
A total of 20 μL of 20 μg/mL fibronectin (Millipore) in PBS was added to each well of a 384-well clear-bottomed black tissue-culture treated plate (Corning) and incubated for 30-120 minutes at 33° C. or 37° C. […] The fibronectin solution was removed from each well using a 24-channel wand aspirator; then 30 μL of BMSC solution was added to plate 2000 BMSCs/well. […] Each plate was covered with a sterile rayon breathable membrane (VWR) and plastic lid, and then spun at 500 rpm (approximately 60× gravity) with slow braking. The plates were incubated at room temperature for 60-90 minutes before incubation at 33° C. with 5% CO2 for 3 days prior to HSC addition.
The sorted HSCs, SLAMs and progenitor cells were resuspended in phenol-red free alpha-MEM with 20% FBS and diluted to 10,000 cells/mL. A total of 20 μL of cell solution containing 200 hematopoietic cells was added to each well using a multichannel pipettor or liquid-dispensing system. Each plate was covered with a sterile rayon breathable membrane (VWR) and plastic lid, and then spun at 500 rpm (approximately 60×gravity) with slow braking. The plates were incubated at room temperature for 60-90 minutes before incubation at 33° C. with 5% CO2 overnight prior to compound or cytokine addition.
Image analysis was performed using MetaXpress software from MDC and CellProfiler software from the Broad Institute of Harvard and MIT.
Compound addition and incubation was performed as described for the LSC coculture screen above, but without a media change or readdition of the compound.
The selected set was screened in 8-point dose against both normal HSPCs with a high number of replicates (6) and LSC-enriched leukemia cells, each cocultured on primary MSCs.

normal murine HSPCs = assay: Triple coculture (LSCs and HSPCs on primary MSCs), normal HSPCs; conditions: for IC50: Mus musculus, read-out: Normal HSPC* IC50
Method: As in the original assay approach, treatment of these triple cocultures began one day after hematopoietic cell plating and was assessed 5 days later.
An in vitro therapeutic index was determined for each compound, a comparative measure of the potential for anti-LSC efficacy relative to the potential for dose-limiting toxicities to normal HSCs (myeloablation), or to normal progenitors (myelosuppression). Specifically, ratios were created using the IC50s for primary murine HSPCs in triple coculture as the numerator, and the IC50s for primary murine leukemia inhibition in triple coculture as the denominator, toward assessing the potential for HSC harm relative to LSC inhibition.

[2] = system: primary CD34+ cells from normal human cord blood; assay: Human CD34+ CAFC assay, normal cells; conditions: 1.25 μM to 10 μM, 18 hours exposure
Method: Samples were centrifuged over Ficoll-Paque PLUS (GE Heathcare) step gradient (2000×g for 30 min in 50 ml tubes) to obtain mononuclear cells and then CD34^+ cells were selected with immunomagnetic beads (MACS Cell Separation, Miltenyi Biotec, Auburn, Calif.), except in one case, NPM1 mutation, which was CD34^− by flow cytometry and mononuclear cells were used. 50,000 cells were placed into 12.5 cm^2 flasks (Becton Dickinson Labware, Franklin Lakes, N.J.) in co-culture with the MS-5 mouse bone marrow-derived stromal cell line (kindly provided by Dr. Itoh, Dept. of Biology, Niigata University, Japan) and DMSO control and the number of final cobblestones was later read. The number of cells needed to form one cobblestone was then placed in triplicate for each sample with each drug at serial drug dilutions from 10 μM to 0.63 μM as well as with DMSO 0.5% for control purposes and incubated overnight with Iscove's modified Dulbecco's medium (IMDM, in house media preparation laboratory)+20% fetal calf serum (FCS, Atlanta Biologicals, Lawrenceville, Ga.) with glutamine (2 mM/ml, in house media preparation laboratory), monothioglycerol (MTG, 10 nM/ml, Sigma Cell Culture, St. Louis Mo.), c-Kit ligand (20 ng/ml, Amgen, Thousand Oaks, Calif.), Flt ligand (20 ng/ml, Imclone, Bridgewater, N.J.), TPO (20 ng/ml, Amgen) and IL-3 (20 ng/ml, Amgen). […]
The cells were treated with compound or DMSO carrier control at four doses (ranging from 1.25 μM to 10 μM) in triplicate for 18 hours, washed thoroughly, then plated onto human stromal MS-5 monolayers (Itoh, K., Tezuka, H., Sakoda, H., Konno, M., Nagata, K., Uchiyama, T., Uchino, H., and Mori, K. J. (1989). Exp Hematol 17, 145-153.) and maintained in coculture with one subsequent half media change. After 5 weeks (2 weeks for the FLT3-ITD sample (Moore, M. A., Dorn, D. C., Schuring a, J. J., Chung, K. Y., and Morrone, G. (2007). Exp Hematol 35, 105-116.)), cobblestone formation was determined, and dose-response curves against the 7 cell types were generated for each compound.

[3] = Mus musculus, MLL-AF9, LSCs on primary MSC stroma, 8-point dose
[4] = read-out: Normal IC50, HSPCs on primary MSC stroma, 8-point dose

Row | SMILES | IC50 [1, 3] [nM] | leukemia-selective activity in coculture vs normal HSPCs [1] | IC50 (normal HSPCs; [4]) [nM] | IC50 (normal murine HSPCs) [nM] | IC50 ([1]; LSCs on primary MSC stroma, 8-point dose) [nM] | IC50 ([1]; Mus musculus, MLL-AF9, statins (acid form), LSCs cocultured on primary MSC stroma) [nM] | IC50 (normal HSPCs; read-out: Normal IC50, statins (acid form), HSPCs cocultured on primary MSC stroma) [nM] | effect on normal HSPCs in coculture (normal HSPCs; up to 20 μM, the maximum dose tested) | toxicity against normal primary CD34+ cells (human CAFC) [2] | normal HSPCs in triple coculture (normal murine HSPCs; 200 nM lovastatic acid or 1 μM BRD7116, 5 days)
1 | CC1(C)C(C(=O)Nc2ccc(S(=O)(=O)c3ccc(NC(=O)C4C(C)(C)C4(C)C)cc3)cc2)C1(C)C [BRD7116] | 204 | selective loss of the LSC-enriched leukemia cells | > 20000 | 5000 | – | – | – | – | – | –
2 | CCC(C)C(=O)OC1CC(C)C=C2C=CC(C)C(CCC(O)CC(O)CC(=O)O)C21 (centres unmarked) [Lovastatic acid] | < 200 | leukemia-selective activity | > 20000 | 800 | 167 | < 200 | > 10000 | minimal toxicity | neither compound showed toxicity | continued to display healthy, cobblestoned morphologies
